Laboratory results from ChEMBL document CHEMBL1141614, “Selective COX-2 inhibitors. Part 2: synthesis and biological evaluation of 4-benzylideneamino- and 4-phenyliminomethyl-benzenesulfonamides” (Bioorg Med Chem, 2008).

How the values were obtained:
[1] = molecular target: Prostaglandin G/H synthase 1 (Homo sapiens, UniProt P23219); assay type: tissue-based, Blood
Description: Inhibition of COX1 in human whole blood assessed as effect on A-23187-stimulated TxB2 production

[2] = molecular target: T1, Prostaglandin G/H synthase 2 (Homo sapiens, UniProt P35354); experiment: Inhibition of COX2 in human whole blood assessed as effect on LPS-stimulated PGE2 production
T1 sequence (P35354 whole entry): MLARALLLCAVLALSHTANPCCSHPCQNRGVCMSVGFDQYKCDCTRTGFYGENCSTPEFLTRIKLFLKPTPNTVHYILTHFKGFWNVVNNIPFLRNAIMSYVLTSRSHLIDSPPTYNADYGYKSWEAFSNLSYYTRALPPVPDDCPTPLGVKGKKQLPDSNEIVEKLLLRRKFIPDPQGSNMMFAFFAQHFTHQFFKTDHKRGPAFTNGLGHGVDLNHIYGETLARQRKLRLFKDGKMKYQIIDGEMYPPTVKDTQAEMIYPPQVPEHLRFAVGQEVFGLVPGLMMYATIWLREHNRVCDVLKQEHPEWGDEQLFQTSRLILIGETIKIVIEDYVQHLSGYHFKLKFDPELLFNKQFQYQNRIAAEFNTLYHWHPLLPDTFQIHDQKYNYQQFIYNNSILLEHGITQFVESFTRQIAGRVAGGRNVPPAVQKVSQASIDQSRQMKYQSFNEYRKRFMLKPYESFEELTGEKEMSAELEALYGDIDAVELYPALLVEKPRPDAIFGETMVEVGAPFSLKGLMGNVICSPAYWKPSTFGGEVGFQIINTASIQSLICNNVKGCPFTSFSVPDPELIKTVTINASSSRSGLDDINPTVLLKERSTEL

Prostaglandin G/H synthase 1, sequence (P23219 whole entry): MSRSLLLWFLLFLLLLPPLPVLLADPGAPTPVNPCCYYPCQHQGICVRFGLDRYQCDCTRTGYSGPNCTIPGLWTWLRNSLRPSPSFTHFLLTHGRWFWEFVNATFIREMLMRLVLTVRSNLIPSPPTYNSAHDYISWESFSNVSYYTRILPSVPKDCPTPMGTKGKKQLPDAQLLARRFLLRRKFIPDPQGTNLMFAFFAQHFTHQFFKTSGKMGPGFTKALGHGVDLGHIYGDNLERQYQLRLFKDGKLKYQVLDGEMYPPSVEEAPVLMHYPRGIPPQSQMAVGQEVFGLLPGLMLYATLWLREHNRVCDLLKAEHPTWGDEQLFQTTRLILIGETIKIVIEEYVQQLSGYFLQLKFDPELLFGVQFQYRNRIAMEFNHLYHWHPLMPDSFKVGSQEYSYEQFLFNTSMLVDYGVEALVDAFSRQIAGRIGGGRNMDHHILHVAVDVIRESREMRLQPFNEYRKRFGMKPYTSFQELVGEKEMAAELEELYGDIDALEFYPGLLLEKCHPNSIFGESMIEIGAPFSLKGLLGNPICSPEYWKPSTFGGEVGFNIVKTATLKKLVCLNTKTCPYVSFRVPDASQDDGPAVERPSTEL

| IC50 [1] [µM] | IC50 [2] [µM] | SMILES |
| --- | --- | --- |
| 31.3 | 4.28 | COc1ccc(/N=C/c2ccc(S(N)(=O)=O)cc2)cc1OC |
| 383 | 5.45 | COc1cccc(/C=N/c2ccc(S(N)(=O)=O)cc2)c1 |
| 24 | 3.13 | COC(=O)c1cc(/N=C/c2ccc(S(N)(=O)=O)cc2)ccc1O |
| 38.2 | 2.78 | NS(=O)(=O)c1ccc(/N=C/c2cccc(O)c2)cc1 |
| 314 | 9.88 | COc1ccc(/C=N/c2ccc(S(N)(=O)=O)cc2)cc1 |
| 43.9 | 6.54 | NS(=O)(=O)c1ccc(/C=N/c2ccc(C(F)(F)F)cc2)cc1 |
| 167 | 2.93 | COc1cc(/C=N/c2ccc(S(N)(=O)=O)cc2)cc(OC)c1OC |
| 63.2 | 4.62 | Cc1ccc(/N=C/c2ccc(S(N)(=O)=O)cc2)cc1 |
| 196 | 3.36 | CN(C)c1ccc(/C=N/c2ccc(S(N)(=O)=O)cc2)cc1 |
| 110 | 3.09 | COc1ccc(/C=N/c2ccc(S(N)(=O)=O)cc2)cc1OC |
| 80.2 | 4.38 | NS(=O)(=O)c1ccc(/C=N/c2ccc(F)cc2)cc1 |
| 60.7 | 4.14 | COc1ccc(/N=C/c2ccc(S(N)(=O)=O)cc2)cc1 |
| 106 | 6.75 | NS(=O)(=O)c1ccc(/N=C/c2cccc([N+](=O)[O-])c2)cc1 |
| 51.8 | 5.09 | NS(=O)(=O)c1ccc(/C=N/c2ccc(O)cc2)cc1 |
| 156 | 2.71 | COc1cc(/C=N/c2ccc(S(N)(=O)=O)cc2)cc(OC)c1O |
| 184 | 2.73 | COC(=O)c1ccc(/C=N/c2ccc(S(N)(=O)=O)cc2)cc1 |
| 23.2 | 2.85 | NS(=O)(=O)c1ccc(/N=C/c2ccc(O)c(O)c2)cc1 |
| 141 | 3 | NS(=O)(=O)c1ccc(/N=C/c2ccc([N+](=O)[O-])cc2)cc1 |
| 64.4 | 1.95 | CN(C)c1ccc(/N=C/c2ccc(S(N)(=O)=O)cc2)cc1 |
| 110 | 3.4 | COc1cc(/C=N/c2ccc(S(N)(=O)=O)cc2)cc(OC)c1 |
| 56.7 | 3.72 | COC(=O)c1ccc(/N=C/c2ccc(S(N)(=O)=O)cc2)cc1 |
| 108 | 2.87 | NS(=O)(=O)c1ccc(/N=C/c2ccccc2)cc1 |
| 63.6 | 3.11 | NS(=O)(=O)c1ccc(/C=N/c2ccccc2)cc1 |
| 159 | 2.22 | NS(=O)(=O)c1ccc(/N=C/c2ccc(F)cc2)cc1 |
| 47.9 | 3.69 | CCOc1cc(/C=N/c2ccc(S(N)(=O)=O)cc2)ccc1O |
| 148 | 3.42 | NS(=O)(=O)c1ccc(/N=C/c2ccc(O)cc2)cc1 |
| 190 | 4.94 | Cc1ccc(/C=N/c2ccc(S(N)(=O)=O)cc2)cc1 |
| 43.8 | 3.5 | COc1ccc(/C=N/c2ccc(S(N)(=O)=O)cc2)cc1O |
| 78.2 | 2.95 | COc1cc(/C=N/c2ccc(S(N)(=O)=O)cc2)ccc1O |

| SMILES | IC50 [1] [µM] | IC50 [2] [µM] |
| --- | --- | --- |
| NS(=O)(=O)c1ccc(/N=C/c2ccc(O)c(C(=O)O)c2)cc1 | 85.1 | 0.74 |
| NS(=O)(=O)c1ccc(/N=C/c2ccc(C(F)(F)F)cc2)cc1 | 182 | 4.6 |
